Assays:
[1] = tested on: BjaRWT (B0033|ATG) receiver cells; assay: BjaR receiver cell AHSL dose-response (gfp reporter, plate reader); type: cell-based, E. coli XL10-Gold
Excerpt: (§1) These findings are consistent with the predicted translation initiation rates of the respective sequences—translation from the BBa_B0033 RBS provides 1% of protein yield compared to the BBa_B0034 RBS, just as an CTG start codon provides 1% of the protein yield compared to an ATG start codon[30],[31]. This also offers support as to why the ON-state gfp expression level increased in variants with a tighter OFF-state; more cellular resources were available for GFP synthesis when comparatively fewer were allocated to BjaR synthesis. To elucidate the impact of the S107R variant on gene circuit performance, we introduced the S107R variant alone back into the bjaRWT gene, in the context of the BBa_B0033 RBS background.
(§2) In addition to quantifying how these BjaR receiver cells responded to their branched, cognate ligand, we also sought to determine whether the BjaR receiver cells could be activated by structurally dissimilar AHSLs involved in the LuxI/R, EsaI/R, LasI/R and RhlI/R QS systems previously used in synthetic cell communication[5],[7],[8]. To this end, we measured the fluorescence of BjaR receiver cells grown in the presence of their activators, 3OC6-HSL, 3OC12-HSL and C4-HSL, respectively (Supplementary Fig. 13a).
(§3) The BjaR reporter plasmids were retransformed into E. coli XL10-Gold cells for each experiment. A single colony was used to inoculate 5 ml LB + Amp media and incubated at 37 °C, 225 r.p.m. overnight. Overnight cultures were diluted 1/250 or 1/500 in 5 ml M9 minimal media + Amp and incubated at 37 °C, 225 r.p.m. for 3 h and 45 min (until OD600 = ~0.075). Cultures were diluted down to OD600 = 0.05 with M9 minimal media + Amp, and 200 µl was added to wells of a 96-well plate containing 1 µl IV-HSL dissolved in DMSO or 1 µl BjaI CFPS reactions (IV-HSL concentrations obtained from serial dilution from 63.2 µM to 632 pM; final DMSO concentration = 0.5%). Cells were incubated at 37 °C, 800 r.p.m., in a thermomixer with a heated lid for 4 h. Fluorescence and OD600 were measured in a Tecan M1000 infinite plate reader (excitation, 488 nm; emission, 510 nm; bandwidth, 5 nm; gain, 101 and z position, 21,311 µm). The dose–response curves were fitted to the function indicated by Eq. (1), where a = maximal fluorescence output, b = basal fluorescence output, X = concentration of AHSL, GFP = fluorescence at the given condition, EC50 = AHSL at 50% maximal fluorescence output and h = hill coefficient. EC50 and h were derived using the nonlinear regression model based on Eq. (1), in MATLAB. A summary of the dose–response data is available in Supplementary Table 1.1 GFP=b+a−b/1+10^logEC50−X×h

[2] = tested on: BjaRS107R (B0033|ATG) receiver cells; assay: as above; type: cell-based, E. coli XL10-Gold; conditions: C4-HSL vs IV-HSL
Excerpt: as §1, §2, §3

pRhlI promoters (RhlR) = tested on: pRhlI promoters (RhlR); parameters: method as in PMID 29992956; conditions: cited from earlier work

## CCCC(=O)N[C@H]1CCOC1=O [C4-HSL, N-butyryl-L-homoserine lactone]
[1]; 0.36 µM
  activation of receiver cells at maximal concentration tested: partially activated
[1]; C4-HSL vs IV-HSL
  C4-HSL required relative to IV-HSL for the same fluorescence output (lower sensitivity): ~126 ×
[2]
  sensitivity for IV-HSL over C4-HSL: ~126 fold
pRhlI promoters (RhlR)
  concentration required to fully activate expression from pRhlI promoters: > 100 µM

Source: paper PMC10449621, “Engineering cellular communication between light-activated synthetic cells and bacteria” (Nature Chemical Biology, 2023)
